From the NIST ThermoML archive (doi:10.1016/j.jct.2015.02.011)

Legend:
[1] = 100.7 kPa, Liquid; for speed of sound: Frequency=3 MHz, Sing-around technique in a fixed-path interferometer; for mass density: Vibrating tube method
[2] = refractive index (Na D-line) (dimensionless); settings: 100.7 kPa, Liquid, Standard Abbe refractometry
[3] = xn = mol fraction of the nth substance listed; settings: 100.7 kPa, Liquid, x2 = 0; for speed of sound: Frequency=3 MHz, Sing-around technique in a fixed-path interferometer; for mass density: Vibrating tube method
[4] = refractive index (Na D-line) (dimensionless); xn = mol fraction of the nth substance listed; settings: 100.7 kPa, Liquid, Standard Abbe refractometry, x2 = 0

CCCCCCn1cc[n+](C)c1.F[P-](F)(F)(F)(F)F [1-hexyl-3-methylimidazolium hexafluorophosphate]
Settings	mass density, [1] [kg/m3]	refractive index, [2]	speed of sound, [1] [m/s]
293.15 K	1296.72	1.41958	1437.7
298.15 K	1292.62	1.41832	1424.3
303.15 K	1288.61	1.41692	1411.5
308.15 K	1284.72	1.41564	1399
313.15 K	1280.82	1.41422	1386.9
318.15 K	1276.37	1.41306	1375
323.15 K	1272.45	1.41175	1363.3

C1CCOC1 [tetrahydrofuran] + CCCCCCCC[n+]1ccn(C)c1.F[P-](F)(F)(F)(F)F
Settings	mass density, [3] [kg/m3]	refractive index, [4]	speed of sound, [3] [m/s]
293.15 K	888.766	1.40696	1305
298.15 K	883.297	1.4042	1280.8
303.15 K	877.809	1.40157	1256.8
308.15 K	872.279	1.39885	1232.9
313.15 K	866.713	1.39623	1209.2
318.15 K	861.106	1.39349	1185.7
323.15 K	855.456	1.39083	1162.3

CCCCn1cc[n+](C)c1.F[P-](F)(F)(F)(F)F [1-butyl-3-methylimidazolium hexafluorophosphate]
Settings	mass density, [1] [kg/m3]	refractive index, [2]	speed of sound, [1] [m/s]
293.15 K	1370.41	1.41068	1454.6
298.15 K	1366.26	1.40943	1442.3
303.15 K	1362.13	1.40818	1430.2
308.15 K	1357.86	1.40693	1418.4
313.15 K	1353.88	1.40567	1406.7
318.15 K	1349.88	1.40443	1395.2
323.15 K	1345.57	1.40312	1384.1

C1CCOC1 [tetrahydrofuran] + CCCCn1cc[n+](C)c1.F[P-](F)(F)(F)(F)F
Settings	mass density, [3] [kg/m3]	refractive index, [4]	speed of sound, [3] [m/s]
293.15 K	888.766	1.40696	1305
298.15 K	883.297	1.4042	1280.8
303.15 K	877.809	1.40157	1256.8
308.15 K	872.279	1.39885	1232.9
313.15 K	866.713	1.39623	1209.2
318.15 K	861.106	1.39349	1185.7
323.15 K	855.456	1.39083	1162.3

CCCCCCCC[n+]1ccn(C)c1.F[P-](F)(F)(F)(F)F [1-octyl-3-methylimidazolium hexafluorophosphate]
Settings	mass density, [1] [kg/m3]	refractive index, [2]	speed of sound, [1] [m/s]
293.15 K	1238.77	1.42441	1421.2
298.15 K	1234.79	1.42312	1406.5
303.15 K	1230.84	1.42171	1392.4
308.15 K	1227.09	1.42029	1379
313.15 K	1223.3	1.41888	1365.8
318.15 K	1219.5	1.4175	1351.2
323.15 K	1215.42	1.41601	1338

C1CCOC1 [tetrahydrofuran]
Settings	mass density, [1] [kg/m3]	refractive index, [2]	speed of sound, [1] [m/s]
293.15 K	888.766	1.40696	1305
298.15 K	883.297	1.4042	1280.8
303.15 K	877.809	1.40157	1256.8
308.15 K	872.279	1.39885	1232.9
313.15 K	866.713	1.39623	1209.2
318.15 K	861.106	1.39349	1185.7
323.15 K	855.456	1.39083	1162.3

C1CCOC1 [tetrahydrofuran] + CCCCCCn1cc[n+](C)c1.F[P-](F)(F)(F)(F)F
Settings	mass density, [3] [kg/m3]	refractive index, [4]	speed of sound, [3] [m/s]
293.15 K	888.766	1.40696	1305
298.15 K	883.297	1.4042	1280.8
303.15 K	877.809	1.40157	1256.8
308.15 K	872.279	1.39885	1232.9
313.15 K	866.713	1.39623	1209.2
318.15 K	861.106	1.39349	1185.7
323.15 K	855.456	1.39083	1162.3
